Patent publication US20090325959A1 (priority 2008, published 2009)
Where two headings read alike, the source gives them in different places.

Experiments:
Akt3 human enzyme = target: T1, Akt3 human enzyme (Homo sapiens, UniProt Q9Y243); test: Akt3 inhibition assay (IMAP FP); assay type: biochemical;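 note: kinase reaction run 60 min at room temperature after 30 µM ATP start, phosphorylated substrate captured on IMAP beads and read as fluorescence polarization (mP)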
T1 construct: purchased Upstate Chemicon 14-502
T1 sequence (Q9Y243 whole entry): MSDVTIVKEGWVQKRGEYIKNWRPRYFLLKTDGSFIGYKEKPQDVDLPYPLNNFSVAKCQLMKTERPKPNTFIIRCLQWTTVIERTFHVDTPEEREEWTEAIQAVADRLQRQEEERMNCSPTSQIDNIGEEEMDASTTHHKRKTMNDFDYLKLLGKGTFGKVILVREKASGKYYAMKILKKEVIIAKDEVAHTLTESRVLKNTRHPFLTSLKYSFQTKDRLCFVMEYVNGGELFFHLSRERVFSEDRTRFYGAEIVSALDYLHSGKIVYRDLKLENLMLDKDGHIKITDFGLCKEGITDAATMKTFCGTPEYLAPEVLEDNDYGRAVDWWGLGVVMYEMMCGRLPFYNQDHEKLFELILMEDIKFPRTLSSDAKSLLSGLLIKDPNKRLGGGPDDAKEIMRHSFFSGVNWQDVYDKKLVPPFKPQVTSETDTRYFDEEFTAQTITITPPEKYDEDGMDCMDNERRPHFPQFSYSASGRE
Experimental: (§1) Inhibition of Akt3 and p70S6K activity was determined using the IMAP™ FP Progressive Binding Kit (Molecular Devices product number R8127). […] Following the pre-incubation, 30 μM ATP was added to initiate the reaction. After 60 minutes at RT, Molecular Devices IMAP™ binding solution was added to bind phosphorylated substrate. After 30 minutes of incubation in the presence of the IMAP™ beads the fluorescence polarization was read and the ratio was reported as mP. IC50 results were calculated using the Prism software from Graphpad. The Ki values were determined according to the following formula: Ki=IC50/(1+([ATP Challenge]/EC50 ATP)).

[1] = Compound plasma concentrations in unsensitized mice at 15 min post administration; assay type: in vivo; conditions: mouse, 15 μmol/kg; mean compound plasma concentration in mice at 15 minutes post oral administration; read-out: Mouse Oral PK
ROCK2 = target: T2, ROCK2 (Homo sapiens, UniProt O75116); test: Rho kinase inhibition assay (IMAP fluorescence polarization), ROCK2; assay type: biochemical;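 note: kinase reaction started with 10 µM ATP and run 60 min at room temperature, then phosphorylated substrate captured on IMAP beads for 30 min and fluorescence polarization read in mP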
T2 construct: purchased Upstate/Chemicon 14-451
T2 sequence (O75116 11-552 limits assumed): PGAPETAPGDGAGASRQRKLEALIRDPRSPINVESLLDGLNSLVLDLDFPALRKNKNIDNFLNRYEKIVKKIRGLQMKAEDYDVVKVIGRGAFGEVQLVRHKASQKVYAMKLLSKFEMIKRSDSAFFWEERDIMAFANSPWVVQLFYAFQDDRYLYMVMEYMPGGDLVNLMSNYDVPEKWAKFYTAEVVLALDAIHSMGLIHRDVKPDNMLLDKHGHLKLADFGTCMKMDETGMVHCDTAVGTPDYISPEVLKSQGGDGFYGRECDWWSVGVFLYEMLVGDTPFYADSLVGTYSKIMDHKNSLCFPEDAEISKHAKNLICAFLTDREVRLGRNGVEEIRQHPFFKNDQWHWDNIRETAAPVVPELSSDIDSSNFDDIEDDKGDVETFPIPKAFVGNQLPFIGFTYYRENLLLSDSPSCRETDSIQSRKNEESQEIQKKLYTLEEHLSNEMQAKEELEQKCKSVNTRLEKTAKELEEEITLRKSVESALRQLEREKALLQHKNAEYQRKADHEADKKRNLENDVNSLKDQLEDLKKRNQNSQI
Experimental: (§2) Following the pre-incubation, 10 μM ATP was added to initiate the reaction. After 60 minutes at room temperature, Molecular Devices IMAP™ binding solution was added to bind phosphorylated substrate. After 30 minutes of incubation in the presence of the IMAP™ beads, the fluorescence polarization was read and the ratio was reported as mP. IC50 values for compounds and EC50 values for ATP were calculated using the Prism software from Graphpad.

ROCK1 = target: T3, ROCK1 (Homo sapiens, UniProt Q13464); test: Rho kinase inhibition assay (IMAP fluorescence polarization), ROCK1; assay type: biochemical;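 note: kinase reaction run 60 min at room temperature, then phosphorylated substrate captured on IMAP beads for 30 min, with fluorescence polarization read in mP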
T3 construct: purchased Upstate/Chemicon 14-601
T3 sequence (Q13464 17-535 limits assumed): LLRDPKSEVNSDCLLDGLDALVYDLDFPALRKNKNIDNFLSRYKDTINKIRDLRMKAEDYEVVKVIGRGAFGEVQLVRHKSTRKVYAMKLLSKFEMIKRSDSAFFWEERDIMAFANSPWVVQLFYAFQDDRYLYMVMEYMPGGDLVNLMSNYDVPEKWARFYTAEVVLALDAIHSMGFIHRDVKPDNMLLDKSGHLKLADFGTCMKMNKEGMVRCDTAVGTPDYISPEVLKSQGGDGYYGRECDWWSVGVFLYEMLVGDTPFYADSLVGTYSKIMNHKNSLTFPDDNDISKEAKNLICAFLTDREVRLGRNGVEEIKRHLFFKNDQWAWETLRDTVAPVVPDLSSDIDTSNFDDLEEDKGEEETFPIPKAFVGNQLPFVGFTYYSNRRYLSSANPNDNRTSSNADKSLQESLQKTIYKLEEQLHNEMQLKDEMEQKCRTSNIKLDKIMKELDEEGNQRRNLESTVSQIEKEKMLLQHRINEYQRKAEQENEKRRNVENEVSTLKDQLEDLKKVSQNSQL
Experimental: as §2

p70S6K human enzyme = target: T4, p70S6K human enzyme (Homo sapiens, UniProt P23443, T412E); test: p70S6K inhibition assay (IMAP FP); assay type: biochemical;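 note: kinase reaction run at room temperature, phosphorylated substrate captured on IMAP beads and read as fluorescence polarization in mP, IC50 then converted to Ki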
T4 construct: purchased Upstate Chemicon 14-486
T4 sequence (P23443 1-421 T412E limits assumed): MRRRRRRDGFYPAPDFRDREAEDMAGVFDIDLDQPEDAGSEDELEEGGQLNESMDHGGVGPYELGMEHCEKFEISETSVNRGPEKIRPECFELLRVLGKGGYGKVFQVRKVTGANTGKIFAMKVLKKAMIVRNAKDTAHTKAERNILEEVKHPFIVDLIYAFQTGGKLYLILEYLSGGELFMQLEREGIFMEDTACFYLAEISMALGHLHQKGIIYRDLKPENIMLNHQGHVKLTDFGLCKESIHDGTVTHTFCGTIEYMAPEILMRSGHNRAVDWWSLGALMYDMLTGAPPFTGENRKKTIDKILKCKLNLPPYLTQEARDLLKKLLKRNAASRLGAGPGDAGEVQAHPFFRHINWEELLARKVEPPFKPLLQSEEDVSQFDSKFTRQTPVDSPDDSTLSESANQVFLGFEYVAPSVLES
Experimental: as §1

[2] = 30 μM ATP, Ki=IC50/(1+([ATP Challenge]/EC50 ATP)), read-out: Akt3 Ki, Avg
[3] = 10 μM ATP, read-out: ROCK2 Ki, Avg
[4] = 30 μM ATP, Ki=IC50/(1+([ATP Challenge]/EC50 ATP)), read-out: p70S6K Ki, Avg
[5] = average Ki, read-out: p70S6K Ki

Structure (SMILES)	Ki (Akt3 human enzyme; [2]) [nM]	Ki (Akt3 human enzyme; average Ki, read-out: Akt3 Ki) [nM]	concentration at 15 min [1] [nM]	Ki (ROCK2; [3]) [nM]	Ki (ROCK2; average Ki, read-out: ROCK2 Ki) [nM]	Ki (ROCK1; Avg, 10 μM ATP) [nM]	Ki (ROCK1; average Ki) [nM]	Ki (p70S6K human enzyme; [4]) [nM]	Ki (p70S6K human enzyme; [5]) [nM]
CSc1ccc(CN2CCC[C@H](Nc3ccc4[nH]ncc4c3)C2)cc1 [Compound 1.075, (S)-N-(1-(4-(methylthio)benzyl)piperidin-3-yl)-1H-indazol-5-amine]	5320	5320	348	4.4	4.4	48.7	48.7	975	975
Cc1ccc(CN2CCC[C@@H](Nc3ccc4[nH]ncc4c3)C2)cc1 [Compound 1.133, (R)-N-(1-(4-methylbenzyl)piperidin-3-yl)-1H-indazol-5-amine]	148	148	1100	4.3	4.3	25	25	532	532
Oc1cccc(CN2CCC[C@H](Nc3ccc4[nH]ncc4c3)C2)c1 [Compound 1.163, (S)-3-((3-(1H-indazol-5-ylamino)piperidin-1-yl)methyl)phenol]	4420	4420	10	2.9	2.9	33.6	33.6	1880	1880
Brc1ccc(CN2CCC[C@@H](Nc3ccc4[nH]ncc4c3)C2)cc1 [Compound 1.134, (R)-N-(1-(4-bromobenzyl)piperidin-3-yl)-1H-indazol-5-amine]	151	151	1550	4.4	4.4	22.4	22.4	520	520
c1cc(CN2CCC[C@H](Nc3ccc4[nH]ncc4c3)C2)cc(C2CC2)c1 [Compound 1.186, (S)-N-(1-(3-cyclopropylbenzyl)piperidin-3-yl)-1H-indazol-5-amine]	10200	10200	2170	11.9	11.9	129	129	1610	1610
OCCN1CCc2ccc(CN3CCC[C@H](Nc4ccc5[nH]ncc5c4)C3)cc21 [Compound 1.217, (S)-2-(6-((3-(1H-indazol-5-ylamino)piperidin-1-yl)methyl)indolin-1-yl)ethanol]	10300	10300	293	12.1	12.1	70.1	70.1	3500	3500
NS(=O)(=O)c1cccc(CN2CCC[C@@H](Nc3ccc4[nH]ncc4c3)C2)c1 [Compound 1.249, (R)-3-((3-(1H-indazol-5-ylamino)piperidin-1-yl)methyl)benzenesulfonamide]	1600	1600	2150	8.6	8.6	91.7	91.7	937	937
NC(=O)COc1cccc(CN2CCC[C@H](Nc3ccc4[nH]ncc4c3)C2)c1 [Compound 1.195]	22000	22000	108	10.3	10.3	196	196	2730	2730
OCc1ccc(CN2CCC[C@H](Nc3ccc4[nH]ncc4c3)C2)cc1 [Compound 1.223, (S)-(4-((3-(1H-indazol-5-ylamino)piperidin-1-yl)methyl)phenyl)methanol]	11100	11100	13	15.7	15.7	239	239	3100	3100
OCCn1ccc2ccc(CN3CCC[C@H](Nc4ccc5[nH]ncc5c4)C3)cc21 [Compound 1.109, (S)-2-(6-((3-(1H-indazol-5-ylamino)piperidin-1-yl)methyl)-1H-indol-1-yl)ethanol]	5190	5190	187	9.6	9.6	58.8	58.8	2500	2500
COc1ccc(CN2CCC[C@H](Nc3ccc4[nH]ncc4c3)C2)cc1 [Compound 1.079, (S)-N-(1-(4-methoxybenzyl)piperidin-3-yl)-1H-indazol-5-amine]	7190	7190	2440	4.7	4.7	71.5	71.5	3010	3010
CS(=O)(=O)Cc1cccc(CN2CCC[C@H](Nc3ccc4[nH]ncc4c3)C2)c1 [Compound 1.157, (S)-N-(1-(3-(methylsulfonylmethyl)benzyl)piperidin-3-yl)-1H-indazol-5-amine]	29200	29200	357	8.8	8.8	264	264	8690	8690
c1cc2c(cc1CN1CCC[C@H](Nc3ccc4[nH]ncc4c3)C1)OCCO2 [Compound 1.166, (S)-N-(1-((2,3-dihydrobenzo[b][1,4]dioxin-6-yl)methyl)piperidin-3-yl)-1H-indazol-5-amine]	18100	18100	342	8	8	95.2	95.2	5160	5160
Cc1ccc(CN2CCC[C@H](Nc3ccc4[nH]ncc4c3)C2)cc1OCCO [Compound 1.152, (S)-2-(5-((3-(1H-indazol-5-ylamino)piperidin-1-yl)methyl)-2-methylphenoxy)ethanol]	1980	1980	435	3.3	3.3	19.8	19.8	523	523
Cc1ccc(CN2CCC[C@H](Nc3ccc4[nH]ncc4c3)C2)c(C)c1 [Compound 1.155, (S)-N-(1-(2,4-dimethylbenzyl)piperidin-3-yl)-1Hindazol-5-amine]	5680	5680	32	7	7	45.4	45.4	1750	1750
Cc1cccc(CN2CCC[C@H](Nc3ccc4[nH]ncc4c3)C2)c1 [Compound 1.171, (S)-N-(1-(3-methylbenzyl)piperidin-3-yl)-1H-indazol-5-amine]	9330	9330	369	16	16	109	109	3420	3420
Cc1cccc(CN2CCC[C@H](Nc3ccc4[nH]ncc4c3)C2)c1C [Compound 1.156, (S)-N-(1-(2,3-dimethylbenzyl)piperidin-3-yl)-1H-indazol-5-amine]	8770	8770	88	13	13	136	136	3240	3240
CS(=O)(=O)Nc1cccc(CN2CCC[C@@H](Nc3ccc4[nH]ncc4c3)C2)c1 [Compound 1.093, (R)-N-(3-((3-(1H-indazol-5-ylamino)piperidin-1-yl)methyl)phenyl)methanesulfonamide]	1820	1820	363	7.7	7.7	64.5	64.5	2030	2030
C#Cc1ccc(CN2CCC[C@H](Nc3ccc4[nH]ncc4c3)C2)cc1 [Compound 1.077, (S)-N-(1-(4-ethynylbenzyl)piperidin-3-yl)-1H-indazol-5-amine]	5250	5250	26	11.1	11.1	76.1	76.1	716	716
c1cc2cc(CN3CCC[C@H](Nc4ccc5[nH]ncc5c4)C3)ccc2[nH]1 [Compound 1.149, (S)-N-(1-((1H-indol-5-yl)methyl)piperidin-3-yl)-1H-indazol-5-amine]	7400	7400	1560	4.2	4.2	46.8	46.8	1890	1890
Fc1ccc(CN2CCC[C@H](Nc3ccc4[nH]ncc4c3)C2)cc1 [Compound 1.164, (S)-N-(1-(4-fluorobenzyl)piperidin-3-yl)-1H-indazol-5-amine]	4310	4310	1500	6.1	6.1	42.4	42.4	1960	1960
Clc1ccc(CN2CCC[C@H](Nc3ccc4[nH]ncc4c3)C2)cc1 [Compound 1.141, (S)-N-(1-(4-chlorobenzyl)piperidin-3-yl)-1H-indazol-5-amine]	1260	1260	1640	3.8	3.8	28.5	28.5	387	387
